{
  "source": "patent EP4786454A1",
  "about": "“HETEROARYL DERIVATIVE AND USE THEREOF” (priority 2023, dated 2025)",
  "key": {"hERG potassium channels": {"molecular_target": "T1, hERG potassium channels (Homo sapiens, UniProt Q12809)", "T1 construct": "expressed in transfected cells; host or cells: CHO-hERG", "T1 sequence (Q12809 whole entry)": "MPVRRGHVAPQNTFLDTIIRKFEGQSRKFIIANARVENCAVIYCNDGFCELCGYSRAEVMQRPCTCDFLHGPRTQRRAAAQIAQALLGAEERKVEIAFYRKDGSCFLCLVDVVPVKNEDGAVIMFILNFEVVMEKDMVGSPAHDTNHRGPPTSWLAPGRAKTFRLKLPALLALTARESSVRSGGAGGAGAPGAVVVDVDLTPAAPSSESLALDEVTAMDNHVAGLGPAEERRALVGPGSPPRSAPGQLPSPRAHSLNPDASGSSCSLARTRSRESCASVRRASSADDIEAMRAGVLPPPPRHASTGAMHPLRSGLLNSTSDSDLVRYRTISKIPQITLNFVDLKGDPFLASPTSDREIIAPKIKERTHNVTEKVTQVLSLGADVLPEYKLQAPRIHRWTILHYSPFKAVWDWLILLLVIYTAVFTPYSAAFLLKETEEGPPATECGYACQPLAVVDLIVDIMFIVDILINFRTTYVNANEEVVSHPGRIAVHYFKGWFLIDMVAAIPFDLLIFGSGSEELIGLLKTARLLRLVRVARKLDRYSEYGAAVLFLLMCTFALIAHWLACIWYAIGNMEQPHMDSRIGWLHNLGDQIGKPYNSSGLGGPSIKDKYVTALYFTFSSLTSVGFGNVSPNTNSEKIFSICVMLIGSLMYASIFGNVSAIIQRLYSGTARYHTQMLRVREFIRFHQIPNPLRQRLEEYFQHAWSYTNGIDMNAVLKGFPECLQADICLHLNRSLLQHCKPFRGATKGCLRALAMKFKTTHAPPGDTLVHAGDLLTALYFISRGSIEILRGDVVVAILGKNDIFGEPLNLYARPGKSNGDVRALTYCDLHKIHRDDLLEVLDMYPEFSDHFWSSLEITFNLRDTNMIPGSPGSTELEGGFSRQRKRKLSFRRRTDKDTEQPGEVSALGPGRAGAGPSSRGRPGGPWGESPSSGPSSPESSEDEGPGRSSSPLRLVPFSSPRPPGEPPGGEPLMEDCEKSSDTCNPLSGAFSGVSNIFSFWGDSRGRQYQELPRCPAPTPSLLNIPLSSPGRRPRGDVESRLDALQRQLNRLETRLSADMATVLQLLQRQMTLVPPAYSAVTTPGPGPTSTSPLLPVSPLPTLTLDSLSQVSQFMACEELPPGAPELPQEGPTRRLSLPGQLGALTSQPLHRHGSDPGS", "assay": "Automated patch-clamp (Qpatch) assay on CHO-hERG cells", "type": "cell-based", "description": "CHO-hERG cells were cultured in a 175 cm^2 culture flask. When cells grew to a density of 60 to 80%, the culture medium was removed. Cells were washed once with 7 mL of PBS (Phosphate Buffered Saline), and then 3 mL of cell dissociation reagent was added for digestion. After the digestion was completed, 7 mL of culture medium was added for neutralization, and then the mixture was centrifuged. The supernatant was aspirated, and then 5 mL of culture medium was added to resuspend the cells and ensure that the cell density was 2~5×10^6/mL.\nThe compound stock solution was diluted with DMSO. 10 µL of compound stock solution was added to 20 µL of DMSO solution, followed by 3-fold serial dilution to obtain 6 DMSO concentrations. 4 µL of the compound solution at each of the six DMSO concentrations was added to 396 µL of extracellular solution to achieve a 100-fold dilution to obtain six intermediate concentrations. Then, 80 µL of the compound solution at each of the six intermediate concentrations was added to 320 µL of extracellular solution to achieve a 5-fold dilution to the desired final test concentrations. […]\nThe electrophysiological process was recorded. […] This voltage stimulation was applied every 15 seconds, and recorded for 2 minutes. The extracellular solution was then given, and recorded for 5 minutes. […]\nAssay data were analyzed by GraphPad Prism 5.0 software. […]"}, "[1]": {"assay": "Pharmacokinetic evaluation after single intravenous and gavage administration", "settings": "mouse, in vivo, CD-1 mice, IV:0.5 PO:2 mg/kg"}, "[2]": {"assay": "Pharmacokinetic evaluation after single intravenous and gavage administration", "settings": "mouse, in vivo, CD-1 mice, IV:1 PO:5 mg/kg", "description": "Assay method: Mix a test compound with a mixture of 5% DMSO, 60% polyethylene glycol (PEG400) and 35% water, vortex and sonicate to prepare a clear solution of 0.2 mg/mL. Filter the solution through a microporous filter membrane for later use. Select the male CD-1 mice weighing 25 to 35 g, and administer a candidate compound solution to them via intravenous injection at a dosage of 1 mg/kg. After fasting, administer the candidate compound solution to them orally at a dosage of 5 mg/kg. After the administration to the animals, collect 25 µL of blood at 0.083, 0.25, 0.5, 1, 2, 4, 8, 12, and 24 hours, and place the blood in commercially available anticoagulant tubes pre-filled with EDTA-K2. Centrifuge the tubes for 10 minutes to separate the plasma, and store them at -60 °C. Determine the content of the target compound in the plasma samples by LC/MS/MS, and calculate the pharmacokinetic parameters using Phoenix WinNonlin software (Pharsight, USA).\nDefinition of each parameter: IV: intravenous injection; PO: oral administration; C0: instantaneous required concentration after intravenous injection; Cmax: peak plasma concentration after administration; Tmax: time required to reach the peak drug concentration after administration; T1/2: time required for plasma concentration to decrease by half; Vdss: apparent volume of distribution, which refers to the ratio constant between the amount of drug in the body and the plasma concentration when the drug reaches dynamic equilibrium in the body; Cl: clearance, which refers to the apparent volume of distribution of a drug cleared from the body per unit time; Tlast: time of the last test point; AUC0-last: area under the plasma concentration-time curve, which refers to the area enclosed by the plasma concentration curve on the time axis; F: a measure of the speed and extent to which a drug is absorbed into the blood circulation, which is an important indicator for evaluating the degree of drug absorption.\nThe purpose of this assay was to evaluate the pharmacokinetic behaviors after a single intravenous bolus and gavage administration of a compound, to investigate the bioavailability after the gavage administration, and to provide animal experimental data for clinical research.\nCD-1 mice (male, 7 to 9 weeks old)\nThe pharmacokinetic characteristics of the compounds after intravenous and oral administration were assayed in rodents using a standard protocol. In the assay, a candidate compound was prepared into a clear solution and administered to mice via single intravenous and oral administration. The solvent for both intravenous and oral administration was a mixed solvent prepared with 5% DMSO, 60% PEG400, and 35% water. Four female CD-1 mice were used in this project. Two mice were administered intravenously, and plasma samples were collected at 0.083, 0.25, 0.5, 1, 2, 4, 8 and 24 h after the administration. The other two mice were administered orally via gavage, and plasma samples were collected at 0.25, 0.5, 1, 2, 4, 8 and 24 h after the administration. The plasma samples were […] at 4 °C and 3,200 × g for 10 min, and the supernatants were separated to give plasma samples. 20 times the volume of methanol solution containing internal standard was added to precipitate the proteins. After centrifugation at 12,000 × g for 15 min at 4 °C, 50 µL of the supernatant was taken and transferred to a 96-well plate, and centrifuged a second time, and the resulting supernatant was injected for analysis. The plasma concentration was quantitatively analyzed by LC-MS/MS method, and the pharmacokinetic parameters such as peak concentration (Cmax), clearance (CL), half-life (T1/2), […] (Vdss), area under the plasma concentration-time curve (AUC0-last), and bioavailability (F) were calculated."}, "[3]": {"settings": "read-out: Area under the plasma concentration-time curve AUC0-last PO"}, "[4]": {"settings": "read-out: Half-life T1/2 (IV) (converted)"}, "[5]": {"settings": "read-out: Peak concentration Cmax"}, "[6]": {"settings": "read-out: Tissue distribution Vdss"}},
  "note": "Read-outs that look alike come from different tables or passages of the source.",
  "data": [
    {"smiles": "CC(C)(C)CC(=O)Nc1nc2c(F)cc(C#N)cn2c1C1=CCCC1", "note": "[Compound 3]", "values": [
      {"measurement": "IC50", "setting": "hERG potassium channels; CHO-hERG cells, highest test concentration 40.00 µM, read-out: IC50", "result": "> 40", "unit": "µM"},
      {"measurement": "AUC(0-t)", "setting": "[1]; [3]", "result": 2.35, "unit": "µM·h"},
      {"measurement": "bioavailability", "setting": "[1]; read-out: Bioavailability F", "result": 57.3, "unit": "%"},
      {"measurement": "clearance", "setting": "[1]; read-out: Clearance CL", "result": 25.6, "unit": "mL/min/kg"},
      {"measurement": "half-life", "setting": "[1]; [4]", "result": 30, "unit": "min"},
      {"measurement": "Cmax", "setting": "[1]; [5]", "result": 1150, "unit": "nM"},
      {"measurement": "Vd", "setting": "[1]; [6]", "result": 0.94, "unit": "L/kg"}
    ]},
    {"smiles": "CC(C)(C)CC(=O)Nc1nc2c(F)cc(C#N)cn2c1-c1ccc(OC(F)(F)F)cc1", "note": "[Compound 1]", "values": [
      {"measurement": "AUC(0-t)", "setting": "[2]; [3]", "result": 1.41, "unit": "µM·h"},
      {"measurement": "bioavailability", "setting": "[2]; read-out: Bioavailability F", "result": 51.1, "unit": "%"},
      {"measurement": "clearance", "setting": "[2]; read-out: Clearance CL", "result": 67.8, "unit": "mL/min/kg"},
      {"measurement": "half-life", "setting": "[2]; [4]", "result": 52.8, "unit": "min"},
      {"measurement": "Cmax", "setting": "[2]; [5]", "result": 355, "unit": "nM"},
      {"measurement": "Vd", "setting": "[2]; [6]", "result": 4.89, "unit": "L/kg"},
      {"measurement": "IC50", "setting": "hERG potassium channels", "result": "> 40", "unit": "µM"}
    ]}
  ]
}
